Data from PMC10297291 (2023).

How the values were obtained:
[1] = test system: ds26 (DNA, duplex) CAATCGGATCGAATTCGATCCGATTG; assay: thiazole orange displacement (G4-FID), fluorescence; details: 10 mM K+, 90 mM Li+, 10 mM lithium cacodylate pH 7.2, 1 µM TO displaced, 0.25 µM DNA, 3 min equilibration
[2] = test system: G4 (DNA, G4) AGGGTTAGGGTTAGGGTTAGGG; assay: as above; details: 10 mM K+, 90 mM Li+, 10 mM lithium cacodylate pH 7.2, 1 µM TO displaced, 0.25 µM DNA, 3 min equilibration
[3] = test system: G4 (DNA, G4) AGGGTTAGGGTTAGGGTTAGGG; assay: thiazole orange displacement (G4-FID), kinetics; details: 10 mM K+, 90 mM Li+; 10 mM lithium cacodylate pH 7.2; 1 µM TO displaced, 0.25 µM DNA; resveratrol concentration not stated

O=c1c(O)c(-c2ccc(O)c(O)c2)oc2cc(O)cc(O)c12
binding ([1]; positive control): yes | binding ([2]; positive control): yes

O=c1cc(-c2ccccc2)oc2cc(O)cc(O)c12
TO shift ([1]; highest concentrations): < 20% | TO shift ([2]; highest concentrations): < 20%

Oc1ccc(/C=C/c2cc(O)cc(O)c2)cc1
binding [3]: no
